Results published in patent publication US20110263642A1, “METHODS FOR TREATMENT OF MULTIPLE SCLEROSIS” (FibroGen, Inc., priority 2008, published 2011).
Like-named read-outs stand apart in the source and are kept apart here.

Columns and labels:
[1] = test system: EAE animal model of multiple sclerosis; assay: EAE induced by MBP injection in Lewis rats, prophylactic versus treatment dosing (second series); assay type: in vivo
Procedure: In another series of experiments, the effectiveness of compounds and methods of the present invention on treating established multiple sclerosis in an EAE model was examined as follows. EAE was induced in female Lewis rats (200-220 g) as described above. Compound of the invention (30 mg/kg) or vehicle control was administered p.o. daily from day 3 to day 21 following MBP injection (prophylactic group) or from the day first symptoms appeared to day 21 (treatment group). Dexamethasone (1 mg/kg) was administered subcutaneously at 1 mg/kg from day 8 to day 12 following MBP injection.
Neurological scoring was performed daily from day 7 to day 21 following […]. Grading of disease severity (i.e., disease score) was based on the following observations performed by two different observers: 0=no abnormality; 1=distal weakness of the tail; 2=complete weakness of the tail; 3=mild weakness in one or two hindlimbs; 4=moderate paraparesia of one or two hindlimbs; 5=total paraplegia. Analysis of variance (ANOVA) was performed on data from the measured (clinical score) or the calculated (severity score) parameters. Fisher's Protected Least Significant Difference was used for pairwise comparisons. p value≦0.05 were considered significant.
Cumulative EAE disease score, used as a measure of overall disease severity, was determined by adding all disease/neurological scores for each animal over the time course of the experiment.

[2] = test system: Oligodendrocytes (MO3.13 cells); assay: Ceramide-induced cell death of oligodendrocytes, Calcein AM viability; assay type: cell-based; conditions: for viability at 20 µM: ceramide 2.25 μM, compound 20 μM, non-ceramide control = 100
Source text: (See e.g., Craighead et al. (2000) Neurosci Lett. 278:125-8; Jana et al. (2007) J Neuroimmune Pharmacol. 2:184-93; Jana et al. (2009) J Neurol Sci. 278:5-15; Singh et al. (1998) J Biol. Chem. 273:20354-62.) In this model, addition of ceramide to cultured oligodendrocytes results in oxidative stress-induced cell death (i.e. apoptosis). The effect of compounds and methods of the present invention on the ability to improve oligodendrocyte viability following ceramide challenge was examined as follows. Oligodendrocytes (MO3.13 cells; Cedarlane Laboratories, Burlington, N.C.) were plated in 96-well culture dishes at a density of 4000 cells per well and cultured at 37° C., 10% CO2 in DMEM containing L-glutamine, sodium pyruvate, and 25 mM glucose (Mediatech Inc., Manassas, Va.) and supplemented with 10% FBS (Invitrogen Corporation, Carlsbad, Calif.). The next day, the plating media was removed and replaced with DMEM containing L-glutamine (Invitrogen Corporation, Carlsbad, Calif.) and supplemented with 5.5 mM glucose. Cells were then treated with vehicle (0.015% DMSO) or ceramide (Sigma-Aldrich, St. Louis, Mo.) plus vehicle (0.05% DMSO) or a compound of the invention (20 μM).
For cells treated longer than 3 days, half the media was removed after the third day of treatment and replaced with an equal volume of fresh treatment media containing vehicle (0.015% DMSO) or ceramide plus vehicle (0.05% DMSO) or a compound of the invention.
Cell viability was assessed 3, 4, and 5 days after treatment using the following protocol. Treatment media was removed from the cells and 100 ul of 1.67 uM Calcein AM reagent (Invitrogen Corporation, Carlsbad, Calif.) prepared in DMEM containing L-glutamine (Invitrogen Corporation, Carlsbad, Calif.) and supplemented with 5.5 mM glucose was added to each well. Cells were returned to 37° C. in a 10% CO2 incubator for approximately 30 minutes before assessing fluorescence (Ex 485 nm/Em 538 nm) using a microplate reader (Molecular Devices, Sunnyvale, Calif.). Images were taken of representative wells using a fluorescent microscope equipped with a camera (Nikon, Melville, N.Y.) and imaging software (Nikon, Melville, N.Y.).

[3] = test system: EAE animal model of chronic progressive multiple sclerosis; assay: Chronic progressive EAE induced by MOG35-55 and pertussis toxin in mice, neurological scoring to day 35; assay type: in vivo, C57BL/6 mice; conditions: for treated animals in which development of EAE disease was prevented / No. of Animals Showing No Disease Activity: through day 35
Source text: A chronic progressive model of EAE is an accepted animal model of human chronic progressive multiple sclerosis (MS). In this model, induction of chronic progressive EAE occurs following injections of myelin oligodendrocyte glycoprotein (MOG). Approximately 8 to 14 days after injection of MOG, animals develop chronic progressive paralysis similar to that observed in humans with chronic progressive MS.
Female C57BL/6 mice (8-10 weeks old) were used in this study (Taconic Farm, CA). Compounds of the present invention were formulated in 0.5% carboxymethyl cellulose (CMC) with 0.1% Polysorbate 80 to achieve a final concentration of either 1.2 mg/ml or 4.0 mg/ml. FTY-720 was also formulated in 0.5% carboxymethyl cellulose (CMC) with 0.1% Polysorbate 80 to achieve a final concentration of 2.0 mg/ml.
Induction of chronic progressive EAE by injection with myelin oligodendrocyte glycoprotein (MOG) was performed as follows. Mice were injected subcutaneously with 200 μg of myelin oligodendrocyte glycoprotein (MOG35-55) peptide emulsion in both sides of their pectoral regions (50 μl each side). At 8 hours and 48 hr after immunization with MOG, animals were injected intraperitoneally with 400 ng of pertussis toxin (PT) in 100 μl of saline. Control mice received both injections with an equivalent volume of saline without MOG or PT.
[…] FTY-720 (10 mg/kg) was used in this study as a positive control and was administered daily from day 0 to day 35.
Neurological scoring was performed daily from day 7 to day 35 following MOG injection. Grading of disease severity (i.e., disease score) was based on the following observations performed by two different observers: 0=no abnormality; 1=distal weakness of the tail (limp tail); 2=limp tail and weakness of hind legs (mild paraparesis); 3=limp tail and complete paralysis of hind legs or paralysis in one of one front leg and one hind leg (moderate paraparesis); 4=limp tail, complete hind leg and partial front leg paralysis (moderate quadraparesis); 5=complete hind and front leg paralysis (moribund). Analysis of variance (ANOVA) was performed on data from the measured (neurological score) parameters. p value≦0.05 were considered significant.

N#Cc1nc(C(=O)NCC(=O)O)c(O)c2c(Oc3ccccc3)cccc12 [Compound A, [(1-Cyano-4-hydroxy-5-phenoxy-isoquinoline-3-carbonyl)-amino]-acetic acid]
cumulative disease score (AUC) ([1]; 30 mg/kg p.o., both prophylactic group and treatment group, FIGS. 4A and 4B): reduced
reduction in disease severity compared to vehicle-treated control EAE animals ([1]; prophylactic group: 30 mg/kg p.o. daily, day 3 to day 21): 31%
reduction in disease severity compared to vehicle-treated control EAE animals ([1]; treatment group: 30 mg/kg p.o. daily, first symptom to day 21, p<0.05): 19%
viability at 20 µM ([2]; 72 h, read-out: % Viable at Day 3): 82%
viability at 20 µM ([2]; 96 h, read-out: % Viable at Day 4): 46%
viability at 20 µM ([2]; 120 h, read-out: % Viable at Day 5): 33%
increase in viability compared to vehicle treated oligodendrocytes ([2]; ceramide-challenged, day 5): 3 fold
treated animals in which development of EAE disease was prevented ([3]; 10 mg/kg as printed): 40%
disease severity compared to vehicle-treated control EAE animals ([3]; 10 mg/kg or 30 mg/kg as printed, p.o. three times a week, day 0-35, FIG. 5): reduction in disease severity at all timepoints
treated animals in which development of EAE disease was prevented ([3]; 30 mg/kg as printed, p<0.05): 43%
No. of Animals Showing No Disease Activity ([3]; first EAE/Cmpd A row, dose not printed in Table 4 (Table 3: 6 mg/kg/d, 3 times a week)): 6/15
No. of Animals Showing No Disease Activity ([3]; second EAE/Cmpd A row, dose not printed in Table 4 (Table 3: 20 mg/kg/d, 3 times a week)): 6/14
